Holding throughout (format): functional
The test system of test [1] is Mus musculus. In words: Percentage reduction in random blood sugar in mice measured on 0th and 3rd day at a dose of 200 mg/kg peroral administration. The settings on record: route oral.
Test [2] has as its system Mus musculus. In words: Percentage reduction in random blood sugar in mice measured on 0th and 9th day at a dose of 200 mg/kg peroral administration. The note with it: route oral.
Test [3] relates to Mus musculus. In words: Percentage reduction in random blood sugar in mice measured on 0th and 6th day at a dose of 200 mg/kg peroral administration. The settings on record: route oral.
Test [4] relates to Mus musculus. In words: Percentage reduction in triglyceride measured on 0 and 9th day at a dose of 100 mg/kg.
Test [5] concerns Mus musculus. In words: Percentage reduction in AUC determined Glucose tolerance test in 18 h fasted animals after feeding 3 g/kg of glucose at a dose of 200 mg/kg peroral administration. The settings on record: route oral.
Test [6] relates to Mus musculus. In words: Percentage reduction in triglyceride measured on 0 and 9th day at a dose of 200 mg/kg.

On to `NC(Cc1cn(CCOc2ccc(/C=C3\SC(=O)NC3=O)cc2)c2ccccc12)C(=O)O` (stereo not given), for which the “Reduction in RBS” value in the test on Mus musculus [1] amounted to 0%; in the test with Mus musculus [2], 0%; with Mus musculus [3] it was 29%. The “Reduction in TG” value in the test with Mus musculus [4] worked out at 64%.

For `O=C1NC(=O)/C(=C/c2ccc(OCCn3c4ccccc4c4ccccc43)cc2)S1`, the “Reduction in RBS” value in the test with Mus musculus [1], in the test with Mus musculus [2] and in the test on Mus musculus [3] was 0% in each case. Further, the “Reduction in TG” value with Mus musculus [4] came to 44%.

Consider `O=C1NC(=O)C(Cc2ccc(OCCn3c4ccccc4c4ccccc43)cc2)S1` (stereo not given), for which the “Reduction in RBS” value with Mus musculus [1], in the test on Mus musculus [2] and in the test with Mus musculus [3] was 0% in each case. Moreover, the “Reduction in TG” value with Mus musculus [4] came out at 21%.

`O=C1NC(=O)/C(=C/c2ccc(OCCn3ccc4ccccc43)cc2)S1`: the entries for the “Reduction in RBS” value in the test on Mus musculus [1], in the test with Mus musculus [2] and in the test on Mus musculus [3] were 27%, 33% and 40%, respectively. Also, the “Reduction in AUC” value in the test on Mus musculus [5] was determined as 15%. Besides, the “Reduction in TG” value in the test on Mus musculus [6] turned out to be 37%.

`O=C1NC(=O)C(Cc2ccc(OCCn3ccc4ccccc43)cc2)S1` (stereo not given): the “Reduction in RBS” value with Mus musculus [1] is 64%; in the test on Mus musculus [2] it was 74%; in the test with Mus musculus [3] it was 48%. Moreover, in the test with Mus musculus [5], the “Reduction in AUC” value is recorded as 55%. The “Reduction in TG” value in the test with Mus musculus [6] was 77%.

With `O=C1NC(=O)/C(=C/c2ccc(OCCn3c(C(=O)O)cc4ccccc43)cc2)S1`, the “Reduction in RBS” value in the test on Mus musculus [1] was found to be 50%; in the test on Mus musculus [2], 12%; in the test on Mus musculus [3], 39%. Besides, in the test with Mus musculus [6], the “Reduction in TG” value amounted to 0%.

As to `O=C1NC(=O)/C(=C/c2ccc(OCCn3cnc4ccccc43)cc2)S1`, the “Reduction in RBS” value with Mus musculus [1] was determined as 22%; in the test with Mus musculus [2], 33%; with Mus musculus [3] it was 31%. Moreover, the “Reduction in TG” value in the test on Mus musculus [6] is listed as 76%.

`Cc1c(C)c2c(c(C)c1O)CCC(C)(COc1ccc(CC3SC(=O)NC3=O)cc1)O2` (stereo not given) [TROGLITAZONE]: the “Reduction in RBS” value with Mus musculus [1] is 14%; with Mus musculus [2], 24%; in the test on Mus musculus [3] it was 16%. Moreover, the “Reduction in AUC” value in the test with Mus musculus [5] came out at 20%. Also, the “Reduction in TG” value in the test on Mus musculus [6] is on record as 50%.

For the origin of these results see ChEMBL document CHEMBL1129886, “Novel indole containing thiazolidinedione derivatives as potent euglycemic and hypolipidaemic agents” (1997).
